Assays:
Type in all cases: cell-based
[1] = tested on: primary human mesenchymal stem cells (hMSCs); assay: Chondrogenesis induction screen in primary human mesenchymal stem cells (nodules, Rhodamine B/Nile Red); details: 144 h, 6 days; for EC (100% TGF-beta3 activity): concentration required to induce chondrogenesis equivalent to TGF-β3 (10 ng/mL), read-out: Conc (nM) of 100% TGF-β3 activity; for Emax: relative to TGF-β3 (10 ng/mL) positive control, read-out: Max. Activity as % TGF-β3 activity
Description: The above synthesized compounds were screened using primary human mesenchymal stem cells (hMSCs) to determine their ability to induce chondrogenesis (process by which cartilage is developed).
Primary human mesenchymal stem cells (hMSCs) were purchased from Lonza (Walkersville, Md.) and expanded in Mesenchymal Stem Cell Growth Media (Lonza). Cells between passage 3 and 6 were used for the experiments.
Each compound was dissolved in DMSO as a 10 mM stock and used to prepare compound source plates. Serial dilution (1:3, 6-point dose-response curves from 2700 nM to 10 nM) and compound transfer was performed using the ECHO 550 (Labcyte, Sunnyvale, Calif.) into 96-well clear bottom assay plates (Greiner Bio-One) with appropriate DMSO backfill for a final DMSO concentration of 0.03%. hMSCs were plated at 20,000 cells/well in 250 μL/well Incomplete Chondrogenic Induction Medium (Lonza; DMEM, dexamethasone, ascorbate, insulin-transferrin-selenium [ITS supplement], gentamycin-amphotericin [GA-1000], sodium pyruvate, proline and L-glutamine). TGF-β3 (10 ng/mL) was used as a positive control for differentiation while negative control wells were treated with 75 nL DMSO for normalization and calculating EC50 values. Cells were incubated at 37° C. and 5% CO2 for 6 days. To image chondrogenic nodules, the cells were fixed using 4% formaldehyde (Electron Microscopy Sciences), and stained with 2 μg/mL Rhodamine B (Sigma-Aldrich) and 20 μM Nile Red (Sigma-Aldrich) [Johnson K., et. al, A Stem Cell-Based Approach to Cartilage Repair, Science, (2012), 336(6082), 717-721]. The nodules imaged (4 images per well at 4× magnification) by excitation at 531 nm and emission at 625 nm and quantified using the CellInsight CX5 (Thermo Scientific). Number of nodules in each well was normalized to the average of 3 DMSO treated wells on the same plate using Excel (Microsoft Inc.). The normalized averages (fold change over DMSO) of 3 replicate wells for each compound concentration were calculated. Due to solubility limitations of some of the compounds, curve fitting was incomplete leading to inaccurate EC50 determinations.
Using TGF-03 as a positive control, the concentration of test compounds required to induce equivalent levels of chondrogenesis is reported. In addition, the maximum activity of each compound and the respective dose that each compound reached maximum chondrogenesis activity is reported.

LL29 cells = assay: Inhibition of the fibrotic process (αSMA staining) in TGF-β1 treated primary human fibroblasts from IPF patients; details: Fibroblast, 96 h, TGF-β1 20 ng/mL, 4 days, dose-response 10 μM to 1.87 nM, read-out: Inhibition of fibrosis EC50
How it was run: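 LL29 IPF lung fibroblasts in 1% FBS were stimulated with TGF-β1 (20 ng/mL) and treated 4 days at 37 °C with compound (11 points, 10 μM–1.87 nM, 0.1% DMSO). The % αSMA-positive cells, imaged after excluding SYTOX-positive dead cells, was normalized to TGF-β1/DMSO wells. EC50 came from nonlinear regression over triplicates.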

[2] = tested on: Wnt pathway (Sp5-Luc reporter, SW480 cells); assay: Sp5-Luc reporter gene screening assay for Wnt activity in SW480 colon carcinoma cells; details: Homo sapiens
How it was run: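 IC50 values come from variable-slope four-parameter fits of luciferase signal normalized to DMSO wells. Stable Sp5-Luc reporter SW480 colon carcinoma cells were exposed to compounds in a 3-fold dilution series (source plates from 10 mM stock) for forty-two hours at 37 °C.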

ARPE-19 cells = assay: Transdifferentiation of ARPE-19 cells into eye neuronal cells [photoreceptors], PAX6 staining; details: Homo sapiens, fixed at 40 hours, PAX6 antibody staining, normalized to DMSO
Description: The above synthesized compounds were screened using ARPE-19 cells [a spontaneously arising retinal pigment epithelia (RPE) cell line] to determine their ability to transdifferentiate ARPE-19 into eye neuronal cells [photoreceptors].
ARPE-19 cells are cultured in standard culture medium containing Dulbecco's Modified Eagle's Medium and Ham's F12 Nutrient Mixture (DMEM/F12) mix (1:1)+GlutaMax with 1% penicillin-Streptomycin and 10% FBS (Fetal Bovine Serum). Cells are incubated at 37° C. with 5% CO2. Cells are trypsinized and plated onto 384-well pre-spotted plate at a density of 3000 cells/well in 50 uL of media. Plating media: DMEM/F12 (1:1)+3% charcoal filtered-FBS+GlutaMax+1% pen/Strep. Cells are incubated at 37° C. with 5% CO2. At 40 hours, cells were fixed for 15 min with 10% Buffered Formalin. Cells were then washed 3 times with PBS for 5 min each, permeablize using 0.3% Triton X-100 in 1×PBS for 30 min, block for 1 hr with 2% BSA in 1×PBS with 0.1% Triton X-100. The primary antibody (1:100 PAX6 Santa Cruz Biotech; sc-81649) was diluted and 10 μL/well was added to the cells. The cells were incubated overnight at 4° C. […] Readings were normalized to DMSO only treated cells, and normalized activities were utilized for EC50 calculations using the dose-response log (activator) vs. response-variable slope (four parameters) nonlinear regression feature available in GraphPad Prism 5.0 or 6.0.

Compound | EC (100% TGF-beta3 activity) [1] [nM] | Emax [1] [%] | EC50 (LL29 cells) [nM] | IC50 [2] [nM] | EC50 (ARPE-19 cells) [nM]
CCCC(=O)Nc1cncc(-c2cc3c(-c4nc5c(-c6cccc(F)c6)nccc5[nH]4)n[nH]c3cn2)c1 [Compound 17, N-(5-(3-(4-(3-Fluorophenyl)-1H-imidazo[4,5-c]pyridin-2-yl)-1H-pyrazolo[3,4-c]pyridin-5-yl)pyridin-3-yl)butyramide] | 67.8 | 10 | ≤ 9 | 10.7 | 
Nc1cncc(-c2cc3c(-c4nc5c(-c6ccccc6F)nccc5[nH]4)n[nH]c3cn2)c1 [Compound 55, 5-(3-(4-(2-Fluorophenyl)-1H-imidazo[4,5-c]pyridin-2-yl)-1H-pyrazolo[3,4-c]pyridin-5-yl)pyridin-3-amine] | 145 |  | ≤ 9 | 16.6 | 
c1cncc(-c2cc3c(-c4nc5c(-c6cccnc6)nccc5[nH]4)n[nH]c3cn2)c1 [Compound 82, 5-(Pyridin-3-yl)-3-(4-(pyridin-3-yl)-1H-imidazo[4,5-c]pyridin-2-yl)-1H-pyrazolo[3,4-c]pyridine] | 44.5 |  |  | 1.7 | 
FC1(F)CCN(Cc2cncc(-c3cc4c(-c5nc6c(N7CCCCC7)nccc6[nH]5)n[nH]c4cn3)c2)C1 [Compound 181, 5-(5-((3,3-Difluoropyrrolidin-1-yl)methyl)pyridin-3-yl)-3-(4-(piperidin-1-yl)-1H-imidazo[4,5-c]pyridin-2-yl)-1H-pyrazolo[3,4-c]pyridine] | 68.1 |  | 140 | 61.6 | 
Cc1cn(-c2nccc3[nH]c(-c4n[nH]c5cnc(-c6cncc(NC(=O)C(C)(C)C)c6)cc45)nc23)cn1 [Compound 190, N-(5-(3-(4-(4-Methyl-1H-imidazol-1-yl)-1H-imidazo[4,5-c]pyridin-2-yl)-1H-pyrazolo[3,4-c]pyridin-5-yl)pyridin-3-yl)pivalamide] | 71.8 | 100 |  | 32.8 | 
CCNCc1cncc(-c2cc3c(-c4nc5c(-c6ccsc6)nccc5[nH]4)n[nH]c3cn2)c1 [Compound 266, N-((5-(3-(4-(Thiophen-3-yl)-1H-imidazo[4,5-c]pyridin-2-yl)-1H-pyrazolo[3,4-c]pyridin-5-yl)pyridin-3-yl)methyl)ethanamine] | 67.7 | 30 | ≤ 9 | 11.3 | 
CC(C)Nc1cncc(-c2cc3c(-c4nc5c(-c6ccoc6)nccc5[nH]4)n[nH]c3cn2)c1 [Compound 298, 5-(3-(4-(Furan-3-yl)-1H-imidazo[4,5-c]pyridin-2-yl)-1H-pyrazolo[3,4-c]pyridin-5-yl)-N-isopropylpyridin-3-amine] | 219 | 300 | 65 | 15 | 
O=C(Nc1cncc(-c2cc3c(-c4nc5c(-c6cccs6)nccc5[nH]4)n[nH]c3cn2)c1)C1CC1 [Compound 331, N-(5-(3-(4-(Thiophen-2-yl)-1H-imidazo[4,5-c]pyridin-2-yl)-1H-pyrazolo[3,4-c]pyridin-5-yl)pyridin-3-yl)cyclopropanecarboxamide] | 68.4 |  | ≤ 9 | 16.4 | 
CC(C)(C)C(=O)Nc1cncc(-c2cc3c(-c4nc5c(-c6ccc(F)s6)nccc5[nH]4)n[nH]c3cn2)c1 [Compound 346, N-(5-(3-(4-(5-Fluorothiophen-2-yl)-1H-imidazo[4,5-c]pyridin-2-yl)-1H-pyrazolo[3,4-c]pyridin-5-yl)pyridin-3-yl)pivalamide] | 40.9 |  | ≤ 9 | 12.6 | 
Cc1ccc(-c2nccc3[nH]c(-c4n[nH]c5cnc(-c6cncc(N)c6)cc45)nc23)s1 [Compound 367, 5-(3-(4-(5-Methylthiophen-2-yl)-1H-imidazo[4,5-c]pyridin-2-yl)-1H-pyrazolo[3,4-c]pyridin-5-yl)pyridin-3-amine] | 259 | 10 | ≤ 9 | 2.1 | 
CC(=O)c1ccc(-c2nccc3[nH]c(-c4n[nH]c5cnc(-c6cccnc6)cc45)nc23)s1 [Compound 394, 1-(5-(2-(5-(Pyridin-3-yl)-1H-pyrazolo[3,4-c]pyridin-3-yl)-1H-imidazo[4,5-c]pyridin-4-yl)thiophen-2-yl)ethan-1-one] | 142 | 10 | 14 | 5.5 | 
Cc1ccncc1-c1cc2c(-c3nc4c(-c5cc(F)cc(CNS(C)(=O)=O)c5)nccc4[nH]3)n[nH]c2cn1 [Compound 421, N-(3-Fluoro-5-(2-(5-(4-methylpyridin-3-yl)-1H-pyrazolo[3,4-c]pyridin-3-yl)-1H-imidazo[4,5-c]pyridin-4-yl)benzyl)methanesulfonamide] | 122 | 10 | > 10000 | 9.9 | 
Cn1cc(-c2cc3c(-c4nc5c(-c6cccc(F)c6)nccc5[nH]4)n[nH]c3cn2)cn1 [Compound 940, 3-(4-(3-Fluorophenyl)-1H-imidazo[4,5-c]pyridin-2-yl)-5-(1-methyl-1H-pyrazol-4-yl)-1H-pyrazolo[3,4-c]pyridine] | 110 | 100 | ≤ 9 | 10 | 
NC1CN(c2cncc(-c3cc4c(-c5nc6c(-c7cccc(F)c7)nccc6[nH]5)n[nH]c4cn3)n2)C1 [Compound 942, 1-(6-(3-(4-(3-Fluorophenyl)-1H-imidazo[4,5-c]pyridin-2-yl)-1H-pyrazolo[3,4-c]pyridin-5-yl)pyrazin-2-yl)azetidin-3-amine] |  |  | 303 | 46 | 5
COc1cncc(-c2cc3c(-c4nc5c(-c6cccc(F)c6)nccc5[nH]4)n[nH]c3cn2)c1 [Compound 948, 3-(4-(3-Fluorophenyl)-1H-imidazo[4,5-c]pyridin-2-yl)-5-(5-methoxypyridin-3-yl)-1H-pyrazolo[3,4-c]pyridine] | 174 | 900 | ≤ 9 | 10 | 
CN(C)CC(=O)Nc1cncc(-c2cc3c(-c4nc5c(-c6cccc(F)c6)nccc5[nH]4)n[nH]c3cn2)c1 [Compound 1437, 2-(Dimethylamino)-N-(5-(3-(4-(3-fluorophenyl)-1H-imidazo[4,5-c]pyridin-2-yl)-1H-pyrazolo[3,4-c]pyridin-5-yl)pyridin-3-yl)acetamide] |  |  | 342 | 38 | 
